Results from patent publication US20240424022A1, “IN VIVO AND EX VIVO METHODS OF MODULATING T CELL EXHAUSTION/DE-EXHAUSTION” (Flagship Pioneering Innovations VI, LLC, priority 2021, published 2024).

Legend:
[1] = tested on: colon adenocarcinoma cell line, MC38; assay: Efficacy study in MC38 syngeneic mice, tumor growth inhibition; format: in vivo, mouse; details: doses per Table 5 (Anti-PD-1 200 ug IP BIWx3, by day 9; Perturbagen 1 10 mg/kg IP QDx10), Table 3 numbering
[2] = tested on: CD8+ T cells derived from tumors; assay: Flow cytometry of tumor infiltrating T lymphocytes, MC38 syngeneic mouse model; format: in vivo; details: MC38 mice, day after final dose, doses per Table 5, Table 3 numbering
Source text: (§1) The day after the final dose, mice were euthanized, blood was collected by cardiac puncture and the tumors were removed. For all mice, a section of tumor was flash frozen in liquid nitrogen and stored at −80 degrees C. for future analysis; the remainder of the tumor was placed in cold RPMI (with glucose) and processed to generate a single cell suspension for flow cytometry. For a pre-selected subgroup of mice, a sample of the single cell suspension was collected for scRNAseq (3 samples from 5 treatment groups provided 15 samples for 2 runs on a 10× Chromium box). Each tumor was minced with a clean razor blade to the consistency of chopped garlic. The tumor was placed in a digestive enzyme mix (mouse tumor dissociation kit, Miltenyi) and incubated on a dissociator at 37 degrees C. for 45 min (OctoMax). Following dissociation, the slurry was filtered through a 70 μm nylon filter, centrifuged, and the pellet resuspended in Ammonium-Chloride-Potassium (ACK) lysing buffer for 3 minutes to lyse red blood cells. The ACK buffer was neutralized with 10-fold excess PBS and then the cell suspension was centrifuged to concentrate the cells. Cell suspensions from all tumors were stored on ice until analyzed by flow cytometry.
For flow cytometry, samples of each cell suspension were incubated at room temperature for one hour with an antibody panel optimized for detection of effector and exhausted T cells (Tables 6 and 7). Prior to intracellular staining, samples were permeabilized and fixed using the eBioscience™ Foxp3 Transcription Factor Staining Buffer Set (ThermoFisher) according to the manufacturer's recommendations. Samples were then incubated for one hour with the intracellular staining mix, then centrifuged and resuspended for flow cytometric analysis. Following compensation measurements using commercial beads, fluorescence minus one (fmo) measurements were performed followed by measurements of all the samples. For each sample, at least 100,000 events were recorded. All analysis for flow cytometry data was performed using FlowJo™ (BD).

T cells = assay: scRNAseq analysis of MC38 tumor single cell suspensions; format: in vivo; details: MC38 syngeneic mouse, versus PBS
Source text: as §1
As detailed above, 15 samples of tumor single cell suspension were obtained for single cell RNA sequencing (Table 8). […]

pembrolizumab
Tumor growth inhibition (TGI) [1]: significant tumor growth inhibition
Expression of PD-1 in CD8+ T cells derived from tumors [2]: reduced
Expression of TIGIT in CD8+ T cells derived from tumors [2]: reduced
Number of CD8+ T cells in the tumor [2]: increased
Density of T cells in scRNAseq manifold (T cells): enhanced
